Experimental data reported in patent US11576891B2, “Methods of treating or preventing estrogen-related diseases” (ENDORECHERCHE, INC., priority 2010, dated 2023).
Entries after “also recorded” stand apart in the source; their conditions may differ. Marks after values point to notes of the source that are not given here.

Key:
[1] = tested on: human endometrial Ishikawa carcinoma cells; conditions: cited from earlier work
ovariectomized rats = assay: bone histomorphometry after 12-month treatment of ovariectomized rats; format: in vivo, rat; conditions: 12 months
Experimental: FIG. 6 is a bar graph comparing the effect of 12-month treatment with dehydroepiandrosterone (DHEA) alone or in combination with Flutamide or EM-800 on trabecular bone volume in ovariectomized rats. Intact animals are added as additional controls. Data are presented as mean±SEM **p<0.01 versus OVX Control.
FIG. 7 is a bar graph comparing the effect of 12-month treatment with dehydroepiandrosterone (DHEA) alone or in combination with Flutamide or EM-800 on trabecular number of ovariectomized rats. Intact animals are added as additional controls. Data are presented as mean±SEM **p<0.01 versus OVX Control.
Note the reduced amount of trabecular bone (T) in ovariectomized control animals (B), and the significant increase in trabecular bone volume (T) induced after DHEA administration (C). […] Modified trichrome Masson-Goldner, magn.×80. T: Trabeculae, GP: Growth Plate.
Importantly, the combination of EM-800 and DHEA in ovariectomized rats treated for 12 months had beneficial effects on bone morphometry. Trabecular bone volume is particularly important for bone strength and to prevent bone fractures.

[2] = tested on: postmenopausal women suffering from vaginal atrophy; conditions: daily intravaginal, 3 months; cited from earlier work
60- to 70-year-old women = conditions: cited from earlier work
rat = assay: biochemical parameters of bone metabolism in rats treated with DHEA and/or EM-800; format: in vivo; conditions: for SERUM TALP (alkaline phosphatase) / URINE CALCIUM / URINE HP/Cr (hydroxyproline/creatinine ratio) / URINE PHOSPHORUS: DHEA 10 mg percutaneously, EM-800 75 μg orally, once daily; for decrease of urinary hydroxyproline/creatinine ratio, marker of bone resorption / increase of serum alkaline phosphatase activity, marker of bone formation: versus control
From the text: Data are expressed as the means±SEM. **: P<0.01 experimental versus respective control.
It is particularly important to indicate that the combination of DHEA and EM-800 exerts unexpected beneficial effects on important biochemical parameters of bone metabolism. […] Moreover, no effect of DHEA alone could be detected on daily urinary calcium or phosphorus excretion (Luo, Sourla et al. 1997). EM-800, on the other hand, decreased the urinary hydroxyproline/creatinine ratio by 48% while, similarly to DHEA, no effect of EM-800 was seen on urinary calcium or phosphorus excretion. EM-800, moreover, had no effect on serum alkaline phosphatase activity, a marker of bone formation while DHEA increased the value of the parameter by about 75% (Luo, Sourla et al. 1997) (Table 2).
Thus, the addition of DHEA to EM-800 increases by 50% of the inhibitory effect of EM-800 on bone reabsorption.

solid state stability = format: physicochemical
ovariectomized rat = conditions: rat after ovariectomy; cited from earlier work
postmenopausal women = assay: serum lipids in postmenopausal women given oral EM-800; format: in vivo, human

For COc1ccc(-c2sc3cc(O)ccc3c2Oc2ccc(OCCN3CCCCC3)cc2)cc1.Cl [Arzoxifene, 6-hydroxy-3-[4-[2-(1-piperidinyl)ethoxy]phenoxyl]-2-(4-methoxyphenyl)benzo[b]thiophene hydrochloride], the “effect on estrogen-sensitive parameter alkaline phosphatase” value [1] is listed as “stimulate, to various degrees”.

In the case of C[C@]12CC[C@H](O)CC1=CC[C@@H]1[C@@H]2CC[C@]2(C)C(=O)CC[C@@H]12 [DHEA, dehydroepiandrosterone], the “increase in trabecular bone number compared to ovariectomized controls” value (ovariectomized rats) is reported as 137%, the trabecular bone number (ovariectomized rats) is reported as 1.27±0.1 per mm and the “trabecular bone volume of the tibia” value (ovariectomized rats) is reported as 11.9±0.6%. The “circulating estradiol or testosterone” value [2] was “no change”, the “domains of sexual dysfunction (desire, arousal, orgasm and pleasure)” value [2] was “significant improvement” and the “symptoms and signs of vaginal atrophy” value [2] was “rapid and very marked improvement”. For the same molecule, the abdominal fat measurements (60- to 70-year-old women; 12 months) was “no significant change”, the body weight (60- to 70-year-old women; 12 months) was “no change” and the “decrease in fasting plasma insulin levels” value (60- to 70-year-old women; 12 months) was 17%. The “decrease in plasma bone alkaline phosphatase” value (60- to 70-year-old women; 12 months) was 22%, the “decrease in subcutaneous skin fold thickness” value (60- to 70-year-old women; 12 months) was 9.8% and the “decrease in urinary hydroxyproline” value (60- to 70-year-old women; 12 months) was 38%. The “decrease of fasting plasma glucose” value (60- to 70-year-old women; 12 months) was 12%, the “decrease of femoral fat (midthigh, computed tomography)” value (60- to 70-year-old women; 12 months) was 3.8% and the “increase in bone mass density at the hip” value (60- to 70-year-old women; 12 months) was 2.3%. For the same molecule, the “increase in bone mass density at the hip Ward's triangle” value (60- to 70-year-old women; 12 months) was 3.75%, the “increase in bone mass density at the lumbar spine level” value (60- to 70-year-old women; 12 months) was 2.2% and the “increase in femoral muscular area (midthigh, computed tomography)” value (60- to 70-year-old women; 12 months) was 3.5%. For the same molecule, the “increase over control in plasma osteocalcin” value (60- to 70-year-old women; 12 months) was 135%, the plasma triglycerides (60- to 70-year-old women; 12 months) was “not affected” and the endometrium histology (60- to 70-year-old women; after 12 months, all women) was “remained completely atrophic”. For the same molecule, the “increase in index of sebum secretion” value (60- to 70-year-old women; after 12 months) was 79%, the “women with stimulated vaginal epithelium maturation” value (60- to 70-year-old women; women with a maturation value of zero at onset of therapy) was 8 out of 10 and the “effect on daily urinary calcium or phosphorus excretion” value (rat) was “no effect”. The “SERUM TALP (alkaline phosphatase)” value (rat) was 198.38 ± 30.76* IU/L, the “URINE CALCIUM” value (rat) was 25.87 ± 3.54 μmol/24 h/100 g and the “URINE HP/Cr (hydroxyproline/creatinine ratio)” value (rat) was 14.02 ± 1.59 μmol/mmol. For the same molecule, the “URINE PHOSPHORUS” value (rat) was 151.41 ± 14.57 μmol/24 h/100 g, the “decrease of urinary hydroxyproline/creatinine ratio, marker of bone resorption” value (rat) was “did not affect; also recorded: did not show any effect” and the “increase of serum alkaline phosphatase activity, marker of bone formation” value (rat) was “about 75%”.

In the case of CC/C(=C(/c1ccc(OCCN(C)C)cc1)c1cccc(O)c1)c1ccccc1 [Droloxifene, (E)-3-[1-[4-[2-(Dimethylamino)ethoxy]phenyl]-2-phenyl-1-butenyl]phenol], the “effect on estrogen-sensitive parameter alkaline phosphatase” value [1] is listed as “stimulate, to various degrees”.

With CC1=C(c2ccc(O)cc2)[C@H](c2ccc(OCCN3CCCCC3)cc2)Oc2cc(O)ccc21.Cl [EM-652.HCl, (S)-(+)-7-hydroxy-3-(4′-hydroxyphenyl)-4-methyl-2-(4″-(2′″-piperidinoethoxy)phenyl)-2H-1 benzopyran hydrochloride] the solid state stability (solid state stability) was “good solid state stability”.

For CC1=C(c2ccc(OC(=O)C(C)(C)C)cc2)[C@H](c2ccc(OCCN3CCCCC3)cc2)Oc2cc(OC(=O)C(C)(C)C)ccc21 [EM-800, (S)-(+)-4-[7-(2,2-dimethyl-1-oxopropoxy)-4-methyl-2-[4-[2-(1-piperidinyl)-ethoxy]phenyl]-2H-1-benzopyran-3-yl]-phenyl 2,2-dimethylpropanoate], the “antiestrogenic activity in Ishikawa cells” value [1] is listed as “pure antiestrogenic activity”, the “dose at which maximal effect on bone resorption is achieved” value (ovariectomized rat) is listed as 0.01 mg/kg and the “decrease in total serum cholesterol” value (postmenopausal women; daily oral dose of 5, 10, 20 and 40 mg for 2 weeks) is listed as 10%. The “decrease in serum triglyceride levels” value (postmenopausal women; daily oral dose of 5, 10, 20 and 40 mg, at 1 week) was 15%, the “effect on daily urinary calcium or phosphorus excretion” value (rat) was “no effect” and the “SERUM TALP (alkaline phosphatase)” value (rat) was 114.11 ± 11.26 IU/L. For the same molecule, the “URINE CALCIUM” value (rat) was 17.44 ± 4.5 μmol/24 h/100 g, the “URINE HP/Cr (hydroxyproline/creatinine ratio)” value (rat) was 6.81 ± 0.84** μmol/mmol and the “URINE PHOSPHORUS” value (rat) was 102.03 ± 25.13 μmol/24 h/100 g. The “decrease of urinary hydroxyproline/creatinine ratio, marker of bone resorption” value (rat) was 48% and the “increase of serum alkaline phosphatase activity, marker of bone formation” value (rat) was “no effect”.

In the case of CC/C(=C(\c1ccc(I)cc1)c1ccc(OCCN2CCCC2)cc1)c1ccccc1 [Idoxifene, (E)-1-[2-[4-[1-(4-Iodophenyl)-2-phenyl-1-butenyl]phenoxy]ethyl]pyrrolidine], the “effect on estrogen-sensitive parameter alkaline phosphatase” value [1] is listed as “stimulate, to various degrees”.

For OCCOc1ccc(/C(=C(/CCCl)c2ccccc2)c2ccccc2)cc1 [Ospemifene, (Z)-2-[4-(4-chloro-1,2-diphenyl-1-butenyl)phenoxyl]ethanol], the “effect on estrogen-sensitive parameter alkaline phosphatase” value [1] is given as “stimulate, to various degrees”.

For Cl.O=C(c1ccc(OCCN2CCCCC2)cc1)c1c(-c2ccc(O)cc2)sc2cc(O)ccc12 [Raloxifene, [2-(4-hydroxyphenyl)-6-hydroxybenzo[b]thien-3-yl][4-[2-(1-piperidinyl)ethoxy]phenyl]-methanone hydrochloride], the “effect on estrogen-sensitive parameter alkaline phosphatase” value [1] is given as “stimulate, to various degrees” and the “dose at which maximal effect on bone resorption is achieved” value (ovariectomized rat) is given as 0.1 mg/kg.

For CC/C(=C(\c1ccccc1)c1ccc(OCCN(C)C)cc1)c1ccccc1 [Tamoxifen, (Z)-2-[4-(1,2-diphenyl-1-butenyl)phenoxy]-N,N-dimethylethanamine], the “effect on estrogen-sensitive parameter alkaline phosphatase” value [1] is given as “stimulate, to various degrees”.

For CN(C)CCOc1ccc(/C(=C(/CCCl)c2ccccc2)c2ccccc2)cc1 [Toremifene, (Z)-2-[4-(4-Chloro-1,2-diphenyl-1-butenyl)phenoxy]-N,N-dimethylethanamine], the “effect on estrogen-sensitive parameter alkaline phosphatase” value [1] is listed as “stimulate, to various degrees”.
